Results from patent US8247596B2 (Sumitomo Chemical Company, Limited, priority 2007, dated 2012).

What was measured:
Type in all cases: in vivo
Musca domestica = assay: Test Example 4: filter paper/sucrose bait test on Musca domestica; conditions: 24 h, read-out: pest death rate
Experimental: A formulation of any one of the present compounds (1), (4), (5), (7), (11), (12), (13), (18t), (18c), (19), (20), (21), (22), (24), (25t), (25c), (26t), (26c), (27), (29), (30), (31), (32), (33), (34), (35), (40), (41), (43), (49), (50) and (55) obtained according to Formulation Example 36 was diluted with water so that the active ingredient concentration was 500 ppm to obtain a test solution.
(§1) A filter paper having a diameter of 5.5 cm was spread on the bottom of a polyethylene cup having a diameter of 5.5 cm and 0.7 ml of the test solution was added dropwise onto the filter paper. As a bait 30 mg of sucrose was uniformly placed on the filter paper. Into the polyethylene cup, 10 female imagoes of Musca domestica were released and the cup was sealed with a lid. After 24 hours, the number of surviving Musca domestica was examined and the death rate of the pest was calculated.

Blattalla germanica = assay: Test Example 5: filter paper/sucrose bait test on Blattalla germanica; conditions: 144 h, read-out: pest death rate
Experimental: A formulation of any one of the present compounds (4), (5), (7), (12), (13), (18t), (18c), (22), (25t), (25c), (26t), (26c), (29), (30), (31), (32), (33), (34), (40), (41), (43), (49) and (55) obtained according to Formulation Example 36 was diluted with water so that the active ingredient concentration was 500 ppm to obtain a test solution.
as §1, with “2 male” for “10 female”, “Blattalla germanica” for “Musca domestica”, “6 days,” for “24 hours,”

Culex pipiens pallens = assay: Test Example 6: larvae of Culex pipiens pallens in treated water; conditions: 24 h, read-out: pest death rate
Experimental: A formulation of any one of the present compounds (7), (11), (12), (13), (17), (18t), (18c), (22), (24), (25t), (25c), (26t), (26c), (27), (29), (33), (34), (35), (36), (38), (40), (41), (43), (47), (49), (50) and (55) obtained according to Formulation Example 36 was diluted with water so that the active ingredient concentration was 500 ppm to obtain a test solution.
To 100 mL of ion-exchanged water, 0.7 ml of the test solution was added (active ingredient concentration: 3.5 ppm). Into the solution, 20 last-instar larvae of Culex pipiens pallens were released. One day after, the number of surviving Culex pipiens pallens was examined and the death rate of the pest was calculated.

[1] = test system: Haemaphysalis longicornis; assay: Test Example 7: treated filter paper pouch test on ticks; conditions: Haemaphysalis longicornis, 48 h; filter paper treated with 100 mg/m^2; non-blood-sucking nymphal ticks, 10 ticks/group; two days after; read-out: pest death rate
Experimental: Five milligrams of any one of the present compounds (4), (7), (18t), (22), (25t), (26t), (29), (30), (31), (32), (33), (34), (35), (40), (41), (42), (43), (44) and (55) was dissolved in 10 mL of acetone. One milliliter of the acetone solution was uniformly applied on one side of a filter paper (TOYO No. 2; 5×10 cm), so that the filter paper having a surface area of 50 cm^2 was treated with 100 mg/m^2 of the present compound. After drying, the filter paper was folded in two and its edges were clipped to make a pouch. Test ticks (non-blood-sucking nymphal ticks, Haemaphysalis longicornis, 10 ticks/group) were put into the pouch, and the pouch was sealed with clips. Two days after, the number of surviving ticks was examined and the death rate was calculated.

Row | Compound | pest or weed control at 500 ppm (Musca domestica) [%] | pest or weed control at 500 ppm (Blattalla germanica) [%] | pest or weed control at 3.5 ppm (Culex pipiens pallens) [%] | pest or weed control at 100 mg/m2 [1] [%]
1 | CON=C1CCC(C(C#N)S(=O)(=O)CCC(F)(F)C(F)(F)F)CC1 (stereo not shown) [present compound (55), 2-[4-(methoxyimino)cyclohexyl]-2-(3,3,4,4,4-pentafluorobutylsulfonyl)acetonitrile] | ≥ 90 | 100 | ≥ 95 | 90
2 | CCC(C#N)(C1CCC(=NOC)CC1)S(=O)(=O)CCC(F)(F)F (stereo not shown) [present compound (41), 2-[4-(methoxyimino)cyclohexyl]-2-(3,3,3-trifluoropropylsulfonyl)butyronitrile] | ≥ 90 | 100 | ≥ 95 | 90
3 | CON=C1CCC(C(C)(C#N)S(=O)(=O)CCC(F)(F)F)CC1 (stereo not shown) [present compound (40), 2-[4-(methoxyimino)cyclohexyl]-2-(3,3,3-trifluoropropylsulfonyl)propionitrile] | ≥ 90 | 100 | ≥ 95 | 90
4 | CON=C1CCC(C(C#N)S(=O)(=O)CCC(F)(F)F)CC1 (stereo not shown) [present compound (33), 2-[4-(methoxyimino)cyclohexyl]-2-(3,3,3-trifluoropropylsulfonyl)acetonitrile] | ≥ 90 | 100 | ≥ 95 | 90
5 | C#CC1CCC(C[S+]([O-])CCC(F)(F)F)CC1 (stereo not shown) [present compound (26t), 1-ethynyl-4-(3,3,3-trifluoropropylsulfinylmethyl)cyclohexane] | ≥ 90 | 100 | ≥ 95 | 90
6 | C#CC1CCC(CS(=O)(=O)CCC(F)(F)F)CC1 (stereo not shown) [present compound (18t), 1-ethynyl-4-(3,3,3-trifluoropropylsulfonylmethyl)cyclohexane] | ≥ 90 | 100 | ≥ 95 | 90
7 | C#CC1(F)CCC(CS(=O)(=O)CCC(F)(F)F)CC1 (stereo not shown) [present compound (7)] | ≥ 90 | 100 | ≥ 95 | 90
